Source: patent US8163771B2, “11 β-HSD1 modulators” (Exelixis, Inc., priority 2008, dated 2012)

Molecular target: T1, recombinant human 11 β-HSD1 (Homo sapiens, UniProt P28845)
T1 construct: made in house; host or cells: E. coli
Assay: 11 β-HSD1 SPA Assay (Scintillation Proximity Assay)
Assay type: biochemical
Method in brief: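 Scintillation proximity read-out of cortisol formed from 40 nM [3H]cortisone by purified recombinant human enzyme (30-100 nM, E. coli) with 1 mM NADPH, pH7.4, 2 hours at room temperature; beads with cortisol antibody and glycyrrhetinic acid stop the reaction, read next day. IC50 derived from inhibition normalised to background and maximal wells.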

T1 sequence (P28845 whole entry): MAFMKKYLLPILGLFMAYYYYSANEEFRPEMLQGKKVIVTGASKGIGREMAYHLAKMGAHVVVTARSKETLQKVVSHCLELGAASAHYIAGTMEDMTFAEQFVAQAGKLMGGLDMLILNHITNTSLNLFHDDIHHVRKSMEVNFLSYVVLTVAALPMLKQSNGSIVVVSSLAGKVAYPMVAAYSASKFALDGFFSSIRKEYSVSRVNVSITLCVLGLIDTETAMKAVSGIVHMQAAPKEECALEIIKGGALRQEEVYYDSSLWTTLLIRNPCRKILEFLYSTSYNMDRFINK

Row | SMILES | IC50
1 | CC(C)(Oc1cc(F)c(Cl)cc1Cl)C(=O)N[C@H]1C[C@H]2CC[C@@H](C1)N2c1ccc(C(N)=O)cn1 [Example 76, 6-[3-endo-({2-[(2,4-dichloro-5-fluorophenyl)oxy]-2-methylpropanoyl}amino)-8-azabicyclo[3.2.1]oct-8-yl]pyridine-3-carboxamide] | < 200 nM
2 | CC(C)(Oc1cc(F)c(Cl)cc1Cl)C(=O)N[C@H]1C[C@H]2CC[C@@H](C1)N2c1ccc(C(=O)NCC(F)(F)F)cn1 [Example 90, 6-[3-endo-({2-[(2,4-dichloro-5-fluorophenyl)oxy]-2-methylpropanoyl}amino)-8-azabicyclo[3.2.1]oct-8-yl]-N-(2,2,2-trifluoroethyl)pyridine-3-carboxamide] | < 200 nM
3 | CC(C)(Oc1ccc(Cl)cc1C(F)(F)F)C(=O)NC1CC2CCC(C1)N2c1ccc(C(=O)NCC(O)C(F)(F)F)cn1 (stereo not drawn) [Example 458, 6-[3-endo-({2-[4-chloro-2-(trifluoromethyl)phenoxy]-2-methylpropanoyl}amino)-8-azabicyclo[3.2.1]oct-8-yl]-N-(3,3,3-trifluoro-2-hydroxypropyl)pyridine-3-carboxamide] | < 200 nM
4 | CC(C)(Oc1ncc(F)cc1C(F)F)C(=O)N[C@H]1C[C@H]2CC[C@@H](C1)N2c1ccc(C(=O)NCC(F)F)cn1 [Example 440, N-(2,2-difluoroethyl)-6-{3-endo-[(2-{[3-(difluoromethyl)-5-fluoropyridin-2-yl]oxy}-2-methylpropanoyl)amino]-8-azabicyclo[3.2.1]oct-8-yl}pyridine-3-carboxamide] | < 200 nM
5 | CC(C)(Oc1ccc(-c2ccc(F)cc2)cc1Cl)C(=O)N[C@H]1C[C@H]2CC[C@@H](C1)N2c1ccc(C(N)=O)cn1 [Example 282, 6-[3-endo-({2-[(3-chloro-4′-fluorobiphenyl-4-yl)oxy]-2-methylpropanoyl}amino)-8-azabicyclo[3.2.1]oct-8-yl]pyridine-3-carboxamide] | < 200 nM
6 | CC(C)(Oc1ccc(Cl)cc1Cl)C(=O)N[C@H]1C[C@H]2CC[C@@H](C1)N2c1ccc(C(=O)NC2CC2)cn1 [Example 31, N-cyclopropyl-6-[3-endo-({2-[(2,4-dichlorophenyl)oxy]-2-methylpropanoyl}amino)-8-azabicyclo[3.2.1]oct-8-yl]pyridine-3-carboxamide] | < 200 nM
7 | CC(C)(Oc1ncc(Cl)cc1F)C(=O)N[C@H]1C[C@H]2CC[C@@H](C1)N2c1ccc(S(N)(=O)=O)cn1 [Example 247, N-{8-[5-(aminosulfonyl)pyridin-2-yl]-8-azabicyclo[3.2.1]oct-3-endo-yl}-2-[(5-chloro-3-fluoropyridin-2-yl)oxy]-2-methylpropanamide] | < 2000 nM
8 | CC(C)(Oc1ccc(Cl)cc1OCCO)C(=O)N[C@H]1C[C@H]2CC[C@@H](C1)N2c1ccc(C(=O)NCC(F)(F)F)cn1 [Example 389, 6-[3-endo-({2-[4-chloro-2-(2-hydroxyethoxy)phenoxy]-2-methylpropanoyl}amino)-8-azabicyclo[3.2.1]oct-8-yl]-N-(2,2,2-trifluoroethyl)pyridine-3-carboxamide] | < 200 nM
9 | CC(C)(Oc1ccc(F)cc1C(F)(F)F)C(=O)N[C@H]1C[C@H]2CC[C@@H](C1)N2c1ccc(NS(C)(=O)=O)cc1 [Example 283, 2-{[4-fluoro-2-(trifluoromethyl)phenyl]oxy}-2-methyl-N-(8-{4-[(methylsulfonyl)amino]phenyl}-8-azabicyclo[3.2.1]oct-3-endo-yl)propanamide] | < 200 nM
10 | CC(C)(Oc1ccc(Cl)cc1C(F)(F)F)C(=O)N[C@H]1C[C@H]2CC[C@@H](C1)N2c1ccc(S(C)(=O)=O)cn1 [Example 263, 2-{[4-chloro-2-(trifluoromethyl)phenyl]oxy}-2-methyl-N-{8-[5-(methylsulfonyl)pyridin-2-yl]-8-azabicyclo[3.2.1]oct-3-endo-yl}propanamide] | < 200 nM
11 | CC(C)(Oc1cc(Cl)c(Cl)cc1Cl)C(=O)N[C@H]1C[C@H]2CC[C@@H](C1)N2c1ccc(S(N)(=O)=O)cn1 [Example 198, N-{8-[5-(aminosulfonyl)pyridin-2-yl]-8-azabicyclo[3.2.1]oct-3-endo-yl}-2-methyl-2-[(2,4,5-trichlorophenyl)oxy]propanamide] | < 200 nM
12 | CC(C)(Oc1ccc(F)c(Cl)c1Cl)C(=O)N[C@H]1C[C@H]2CC[C@@H](C1)N2c1ccc(S(N)(=O)=O)cn1 [Example 215, N-{8-[5-(aminosulfonyl)pyridin-2-yl]-8-azabicyclo[3.2.1]oct-3-endo-yl}-2-[(2,3-dichloro-4-fluorophenyl)oxy]-2-methylpropanamide] | < 200 nM
13 | CC(C)(Oc1ccc(Cl)cc1Cl)C(=O)N[C@H]1C[C@H]2CC[C@@H](C1)N2c1ccc(NC(=O)CC(F)(F)F)cc1 [Example 133, N-{4-[3-endo-({2-[(2,4-dichlorophenyl)oxy]-2-methylpropanoyl}amino)-8-azabicyclo[3.2.1]oct-8-yl]phenyl}-3,3,3-trifluoropropanamide] | < 200 nM
14 | CC(C)(Oc1ccc(F)c(Cl)c1Cl)C(=O)N[C@H]1C[C@H]2CC[C@@H](C1)N2c1ccc(S(C)(=O)=O)cc1 [Example 235, 2-[(2,3-dichloro-4-fluorophenyl)oxy]-2-methyl-N-{8-[4-(methylsulfonyl)phenyl]-8-azabicyclo[3.2.1]oct-3-endo-yl}propanamide] | < 200 nM
15 | CC(C)(Oc1ccc(Cl)cc1S(N)(=O)=O)C(=O)N[C@H]1C[C@H]2CC[C@@H](C1)N2c1ccc(C(=O)NCC(F)(F)F)cn1 [Example 388, 6-(3-endo-{[2-(4-chloro-2-sulfamoylphenoxy)-2-methylpropanoyl]amino}-8-azabicyclo[3.2.1]oct-8-yl)-N-(2,2,2-trifluoroethyl)pyridine-3-carboxamide] | < 2000 nM
16 | CC(C)(Oc1cc(C(C)(C)C(N)=O)c(Cl)cc1Cl)C(=O)N[C@H]1C[C@H]2CC[C@@H](C1)N2c1ccc(C(=O)NCC(F)(F)F)cn1 [Example 446, 6-[3-endo-({2-[5-(1-amino-2-methyl-1-oxopropan-2-yl)-2,4-dichlorophenoxy]-2-methylpropanoyl}amino)-8-azabicyclo[3.2.1]oct-8-yl]-N-(2,2,2-trifluoroethyl)pyridine-3-carboxamide] | < 200 nM
17 | COCCOc1cc(OC(C)(C)C(=O)N[C@H]2C[C@H]3CC[C@@H](C2)N3c2ccc(C(=O)NCC(F)(F)F)cn2)c(Cl)cc1Cl [Example 382, 6-[3-endo-({2-[2,4-dichloro-5-(2-methoxyethoxy)phenoxy]-2-methylpropanoyl}amino)-8-azabicyclo[3.2.1]oct-8-yl]-N-(2,2,2-trifluoroethyl)pyridine-3-carboxamide] | < 200 nM
18 | COc1ccc(OC(C)(C)C(=O)N[C@H]2C[C@H]3CC[C@@H](C2)N3c2ccc(S(C)(=O)=O)cn2)cc1 [Example 180, 2-methyl-2-{[4-(methyloxy)phenyl]oxy}-N-{8-[5-(methylsulfonyl)pyridin-2-yl]-8-azabicyclo[3.2.1]oct-3-endo-yl}propanamide] | < 200 nM
19 | CC(C)(Oc1ccc(C(F)(F)F)cc1)C(=O)N[C@H]1C[C@H]2CC[C@@H](C1)N2c1ccc(S(N)(=O)=O)cn1 [Example 244, N-{8-[5-(aminosulfonyl)pyridin-2-yl]-8-azabicyclo[3.2.1]oct-3-endo-yl}-2-methyl-2-{[4-(trifluoromethyl)phenyl]oxy}propanamide] | < 2000 nM
20 | CC(Oc1ccccc1)C(=O)N[C@H]1C[C@H]2CC[C@@H](C1)N2c1ccc(C(=O)NC2CC2)cn1 (stereo partly drawn) [Example 48, N-cyclopropyl-6-(3-endo-{[2-(phenyloxy)propanoyl]amino}-8-azabicycio[3.2.1]oct-8-yl)pyridine-3-carboxamide] | < 2000 nM
21 | O=C(NC1CC1)c1ccc(N2[C@@H]3CC[C@H]2C[C@@H](NC(=O)C2(Oc4ccc(Cl)cc4)CC2)C3)nc1 [Example 64, 6-{3-endo-[({1-[(4-chlorophenyl)oxy]cyclopropyl}carbonyl)amino]-8-azabicyclo[3.2.1]oct-8-yl}-N-cyclopropylpyridine-3-carboxamide] | < 200 nM
22 | CC(C)(Oc1ncc(Cl)cc1Cl)C(=O)N[C@H]1C[C@H]2CC[C@@H](C1)N2c1ccc(C(=O)NCC(F)(F)F)cn1 [Example 107, 6-[3-endo-({2-[(3,5-dichloropyridin-2-yl)oxy]-2-methylpropanoyl}amino)-8-azabicyclo[3.2.1]oct-8-yl]-N-(2,2,2-trifluoroethyl)pyridine-3-carboxamide] | < 200 nM
23 | Cc1cc(F)ccc1OC(C)(C)C(=O)N[C@H]1C[C@H]2CC[C@@H](C1)N2c1ccc(S(C)(=O)=O)cc1 [Example 219, 2-[(4-fluoro-2-methylphenyl)oxy]-2-methyl-N-{8-[4-(methylsulfonyl)phenyl]-8-azabicyclo[3.2.1]oct-3-endo-yl}propanamide] | < 200 nM
24 | CC(C)(Oc1ccc(Cl)cc1Cl)C(=O)N[C@H]1C[C@H]2CC[C@@H](C1)N2c1ccc(C(=O)NCC(F)(F)F)cc1F [Example 129, 4-[3-endo-({2-[(2,4-dichlorophenyl)oxy]-2-methylpropanoyl}amino)-8-azabicyclo[3.2.1]oct-8-yl]-3-fluoro-N-(2,2,2-trifluoroethyl)benzamide] | < 200 nM
25 | CC(C)(Oc1ccc(C#N)cc1)C(=O)N[C@H]1C[C@H]2CC[C@@H](C1)N2c1ccc(C(=O)NC2CC2)cn1 [Example 38, 6-[3-endo-({2-[(4-cyanophenyl)oxy]-2-methylpropanoyl}amino)-8-azabicyclo[3.2.1]oct-8-yl]-N-cyclopropylpyridine-3-carboxamide] | < 200 nM
26 | CC(C)(Oc1ccc(F)cc1)C(=O)N[C@H]1C[C@H]2CC[C@@H](C1)N2c1ccc(S(C)(=O)=O)cc1 [Example 233, 2-[(4-fluorophenyl)oxy]-2-methyl-N-{8-[4-(methylsulfonyl)phenyl]-8-azabicyclo[3.2.1]oct-3-endo-yl}propanamide] | < 2000 nM
27 | CC(C)(Oc1cc(F)c(F)cc1Cl)C(=O)N[C@H]1C[C@H]2CC[C@@H](C1)N2c1ccc(C(=O)NCC(F)(F)F)cn1 [Example 75, 6-[3-endo-({2-[(2-chloro-4,5-difluorophenyl)oxy]-2-methylpropanoyl}amino)-8-azabicyclo[3.2.1]oct-8-yl]-N-(2,2,2-trifluoroethyl)pyridine-3-carboxamide] | < 200 nM
